# According to ChEMBL document CHEMBL5046276 (J Med Chem, 2022):
# Key:
# [1] = Cytotoxicity against human HepG2 cells incubated for 72 hrs by CCK-8 assay
# [2] = Selectivity index, ratio of IC50 for cytotoxicity against HEK293T cells to IC50 for antimalarial activity against asexual blood stage wild-type Plasmodium falciparum 3D7; type: toxicity, cell-based; conditions: human, read-out: Ratio IC50
# Plasmodium falciparum [3] = test: Antimalarial activity against asexual blood stage chloroquine-resistant Plasmodium falciparum Dd2 assessed as parasite growth inhibition incubated for 72 hrs by SYBR Green I staining based fluorescence analysis; type: functional, organism-based; conditions: Dd2, 72 h
# [4] = Selectivity index, ratio of IC50 for cytotoxicity against human HepG2 cells to IC50 for antimalarial activity against asexual blood stage wild-type Plasmodium falciparum 3D7; type: toxicity, cell-based; conditions: read-out: Ratio IC50
# [5] = Cytotoxicity against HEK293T cells incubated for 72 hrs by CCK-8 assay; conditions: human
# Plasmodium falciparum [6] = test: Antimalarial activity against asexual blood stage wild-type Plasmodium falciparum 3D7 assessed as parasite growth inhibition incubated for 72 hrs by SYBR Green I staining based fluorescence analysis; type: functional, organism-based; conditions: 3D7, 72 h
# Plasmodium falciparum [7] = test: (§1) Antimalarial activity against ART-resistant Plasmodium falcipuram 6320 harbouring C580Y mutant infected in human RBC assessed as reduction in parasitemia in blood smear by measuring parasite survival ratio at ring stage at upto 700 nM incubated for 6 hrs followed by compound washout and replacement with fresh medium without compounds and measured after 66 hrs by ring stage survival assay; type: functional; conditions: dose nM <=700
# Plasmodium falciparum [8] = test: as §1, with “wild-type” for “ART-resistant”, “3D7” for “6320 harbouring C580Y mutant”; type: functional; conditions: dose nM <=700
# Plasmodium falciparum [9] = test: as §1, with “6218” for “6320”; type: functional; conditions: dose nM <=700
# [10] = Metabolic stability in mouse liver microsomes assessed as intrinsic clearance at […] incubated for 45 mins in presence of NADPH by LC/MS analysis; type: ADME, Microsome; conditions: read-out: CLH
# [11] = Metabolic stability in mouse liver microsomes assessed as half life at […] incubated for 45 mins in presence of NADPH by LC/MS analysis; type: ADME, Microsome; conditions: liver microsomes
# Plasmodium falciparum [12] = test: Antimalarial activity against asexual blood stage chloroquine-resistant Plasmodium falcipuram GB4 assessed as parasite growth inhibition incubated for 72 hrs by SYBR Green I staining based fluorescence analysis; type: functional, organism-based; conditions: GB4, 72 h
# Plasmodium falciparum [13] = test: Antimalarial activity against asexual blood stage quinine-resistant Plasmodium falcipuram C2A assessed as parasite growth inhibition incubated for 72 hrs by SYBR Green I staining based fluorescence analysis; type: functional, organism-based
# Plasmodium falciparum [14] = test: Antimalarial activity against asexual blood stage sulfadoxine-pyrimethamine/mefloquine-resistant Plasmodium falcipuram CP286 assessed as parasite growth inhibition incubated for 72 hrs by SYBR Green I staining based fluorescence analysis; type: functional, organism-based; conditions: CP286, 72 h
SMILES,IC50 at 72 h [1],selectivity ratio [2],IC50 (Plasmodium falciparum [3]),selectivity ratio [4],IC50 at 72 h [5],IC50 (Plasmodium falciparum [6]),Activity (Plasmodium falciparum [7]),Activity (Plasmodium falciparum [8]),Activity (Plasmodium falciparum [9]),CLint scaled [10],half-life [11],IC50 (Plasmodium falciparum [12]),IC50 (Plasmodium falciparum [13]),IC50 (Plasmodium falciparum [14])
O=C(NO)c1cnc(N2CCC3(CN(Cc4cncc5ccccc45)C3)C2)nc1,2230 nM,934,12.4 nM,258,8060 nM,8.63 nM,,,,,,,,
O=C(NO)c1cnc(N2CCC3(CN(Cc4cccc5cnccc45)C3)C2)nc1,2210 nM,97,12.1 nM,133,1610 nM,16.6 nM,,,,,,,,
O=C(NO)c1cnc(N2CCC3(CN(Cc4ccncc4)C3)C2)nc1,20000 nM,> 146,8420 nM,> 146,> 20000 nM,137 nM,,,,,,,,
O=C(NO)c1cnc(N2CCC3(CN(Cc4cccc5ccncc45)C3)C2)nc1,1840 nM,152,5.84 nM,300,930 nM,6.13 nM,,,,,,,,
O=C(NO)c1cnc(N2CCC3(CN(Cc4cnc5ccccn45)C3)C2)nc1,20000 nM,195,8.5 nM,> 1640,2370 nM,12.2 nM,,,,,,,,
Cn1cc(CN2CC3(CCN(c4ncc(C(=O)NO)cn4)C3)C2)c2cccnc21,> 12200 nM,594,7.83 nM,> 1170,6170 nM,10.4 nM,,,,,,,,
O=C(NO)c1cnc(N2CCC3(CN(Cc4cc5ccccc5s4)C3)C2)nc1,3610 nM,794,8.57 nM,625,4590 nM,5.78 nM,,,,,,,,
Cn1cc(CN2CC3(CCN(c4ncc(C(=O)NO)cn4)C3)C2)c2ccccc21,720 nM,331,4.54 nM,157,1520 nM,4.59 nM,,,,,,,,
O=C(NO)c1cnc(N2CCC3(CN(Cc4cccc5ccccc45)C3)C2)nc1,> 770 nM,605,4.38 nM,> 173,2700 nM,4.46 nM,,,,,,,,
Cn1cc(CN2CC3(CCN(c4ncc(C(=O)NO)cn4)C3)C2)c2cnccc21,> 20000 nM,> 908,14.2 nM,> 908,> 20000 nM,22 nM,,,,,,,,
O=C(NO)c1cnc(N2CCC3(CN(Cc4ccco4)C3)C2)nc1,10900 nM,> 263,116 nM,144,20000 nM,76.2 nM,,,,,,,,
O=C(NO)c1cnc(N2CCC3(CN(CC4CCCCC4)C3)C2)nc1,1030 nM,160,19 nM,46,3560 nM,22.2 nM,,,,,,,,
O=C(NO)c1cnc(N2CCC3(CN(Cc4ccsc4)C3)C2)nc1,2460 nM,739,3.86 nM,394,4620 nM,6.25 nM,,,,,,,,
O=C(NO)c1cnc(N2CCC3(CN(Cc4c5ccccc5cc5ccccc45)C3)C2)nc1,31000 nM,49,5.56 nM,,460 nM,9.31 nM,,,,,,,,
O=C(NO)c1cnc(N2CCC3(CN(Cc4cc5ccccc5o4)C3)C2)nc1,3890 nM,785,5.16 nM,543,5620 nM,7.16 nM,,,,,,,,
O=C(NO)c1cnc(N2CCC3(CN(Cc4cccs4)C3)C2)nc1,2510 nM,> 324,59.1 nM,165,> 4930 nM,15.2 nM,,,,,,,,
O=C(NO)c1cnc(N2CCC3(CN(Cc4ccc5ncccc5c4)C3)C2)nc1,1540 nM,102,11.9 nM,90,1740 nM,17.1 nM,,,,,,,,

SMILES,IC50 at 72 h [1],selectivity ratio [2],IC50 (Plasmodium falciparum [3]),selectivity ratio [4],IC50 at 72 h [5],IC50 (Plasmodium falciparum [6]),Activity (Plasmodium falciparum [7]),Activity (Plasmodium falciparum [8]),Activity (Plasmodium falciparum [9]),CLint scaled [10],half-life [11],IC50 (Plasmodium falciparum [12]),IC50 (Plasmodium falciparum [13]),IC50 (Plasmodium falciparum [14])
C[C@@H]1CC[C@H]2[C@@H](C)C(=O)O[C@@H]3O[C@@]4(C)CC[C@@H]1[C@]32OO4 [ARTEMISININ],,,,,,,8%,0.1%,8%,,,,,
Cl.O=C(NO)c1cnc(N2CCC3(CN(Cc4cnc5ccccc5c4)C3)C2)nc1,2040 nM,953,2.58 nM,537,3620 nM,3.8 nM,,,,410 mL/min/kg,0.222 h,,,
O=C(NO)c1cnc(N2CCC3(CN(Cc4ccc5ccccc5c4)C3)C2)nc1,2130 nM,442,13.2 nM,215,4370 nM,9.89 nM,,,,,,,,
O=C(NO)c1cnc(N2CCC3(CN(Cc4cccnc4)C3)C2)nc1,11400 nM,> 426,2230 nM,243,> 20000 nM,47 nM,,,,,,,,
O=C(NO)c1cnc(N2CCC3(CN(CC4CCCC4)C3)C2)nc1,1060 nM,,18.9 nM,64,,,,,,,,,,
COc1ccc2c(CN3CC4(CCN(c5ncc(C(=O)NO)cn5)C4)C3)cn(C)c2c1,630 nM,117,5.1 nM,106,700 nM,5.97 nM,,,,,,,,
O=C(NO)c1cnc(N2CCC3(CN(Cc4ccoc4)C3)C2)nc1,6030 nM,431,40.1 nM,160,16200 nM,37.6 nM,,,,,,,,
Cl.Cn1cc(CN2CC3(CCN(c4ncc(C(=O)NO)cn4)C3)C2)c2ccc(Br)cc21,750 nM,365,2.39 nM,381,720 nM,1.97 nM,,,,13.7 mL/min/kg,6.64 h,,,
O=C(NO)c1cnc(N2CCC3(CN(Cc4ccccn4)C3)C2)nc1,8370 nM,> 449,30.8 nM,188,> 20000 nM,44.6 nM,,,,,,,,
O=C(NO)c1cnc(N2CCC3(CN(Cc4ccccc4)C3)C2)nc1,420 nM,78,66.9 nM,16,1980 nM,25.5 nM,,,,,,,,
C[C@H]1[C@@H](O)O[C@@H]2O[C@@]3(C)CC[C@H]4[C@H](C)CC[C@@H]1[C@@]24OO3 [ARTENIMOL],,,2.78 nM,,,2.85 nM,,,,,,2.34 nM,2.08 nM,8.1 nM
Cc1ccc2c(CN3CC4(CCN(c5ncc(C(=O)NO)cn5)C4)C3)cn(C)c2c1,500 nM,247,3.25 nM,112,1100 nM,4.45 nM,,,,,,,,
Cn1nc(CN2CC3(CCN(c4ncc(C(=O)NO)cn4)C3)C2)c2ccccc21,2130 nM,767,12.7 nM,218,7310 nM,9.79 nM,,,,,,,,
O=C(NO)c1cnc(N2CCC3(CN(Cc4cccc5cccnc45)C3)C2)nc1,2660 nM,423,16.2 nM,202,5580 nM,13.2 nM,,,,,,,,
O=C(NO)c1cnc(N2CCC3(CN(Cc4csc5ccccc45)C3)C2)nc1,490 nM,257,7.88 nM,49,2580 nM,10 nM,,,,,,,,
Cn1cc(CN2CC3(CCN(c4ncc(C(=O)NO)cn4)C3)C2)c2ccncc21,> 20000 nM,> 1370,9.59 nM,> 1370,> 20000 nM,4.57 nM,,,,,,,,
O=C(NO)c1cnc(N2CCC3(CN(Cc4ccc(-c5ccccc5)cc4)C3)C2)nc1,3140 nM,174,43.4 nM,137,3990 nM,22.9 nM,,,,,,,,
